Assay results from PubChem BioAssay (NCI).
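Here, GI50 denotes the concentration required for 50% inhibition of growth. The concentration for full growth arrest is given as TGI.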

Tests used:
Assay in all cases: NCI anticancer screen, dose series, 384-well format
UACC-257 melanoma = tested on: UACC-257 melanoma
BT-549 breast = tested on: BT-549 breast
NCI-H322M lung = tested on: NCI-H322M lung
MOLT-4 leukemia = tested on: MOLT-4 leukemia
LOX IMVI melanoma = tested on: LOX IMVI melanoma
K-562 leukemia = tested on: K-562 leukemia
SR leukemia = tested on: SR leukemia
NCI-H522 lung = tested on: NCI-H522 lung
UO-31 renal = tested on: UO-31 renal
HL-60(TB) leukemia = tested on: HL-60(TB) leukemia
MDA-MB-435 melanoma = tested on: MDA-MB-435 melanoma
U251 glioblastoma = tested on: U251 glioblastoma
DU-145 prostate = tested on: DU-145 prostate
HOP-62 NSCLC = tested on: HOP-62 NSCLC
NCI/ADR-RES ovarian = tested on: NCI/ADR-RES ovarian
UACC-62 melanoma = tested on: UACC-62 melanoma
HCC-2998 colon = tested on: HCC-2998 colon
SF-539 CNS = tested on: SF-539 CNS
786-0 renal = tested on: 786-0 renal
NCI-H23 lung = tested on: NCI-H23 lung
SK-MEL-2 melanoma = tested on: SK-MEL-2 melanoma
OVCAR-3 ovarian = tested on: OVCAR-3 ovarian
MDA-MB-231 breast = tested on: MDA-MB-231 breast
KM12 colon = tested on: KM12 colon
SF-295 CNS = tested on: SF-295 CNS
A498 renal = tested on: A498 renal
HT29 colon = tested on: HT29 colon
HCT-15 colon = tested on: HCT-15 colon

Compound: CCN1C(C)(C)CC(Oc2ccc(C(=O)Nc3ccc(NC(=O)Nc4cc(C(C)(C)C)on4)cc3)nc2)CC1(C)C
- GI50 (UACC-257 melanoma): 1330 nM
- TGI (UACC-257 melanoma): 2610 nM
- GI50 (BT-549 breast): 1550 nM
- TGI (BT-549 breast): 2900 nM
- GI50 (NCI-H322M lung): 2020 nM
- TGI (NCI-H322M lung): 4140 nM
- GI50 (MOLT-4 leukemia): 1670 nM
- TGI (MOLT-4 leukemia): 3060 nM
- GI50 (LOX IMVI melanoma): 1860 nM
- TGI (LOX IMVI melanoma): 3270 nM
- GI50 (K-562 leukemia): 1600 nM
- TGI (K-562 leukemia): 2970 nM
- GI50 (SR leukemia): 1290 nM
- TGI (SR leukemia): 2570 nM
- GI50 (NCI-H522 lung): 1770 nM
- TGI (NCI-H522 lung): 3160 nM
- GI50 (UO-31 renal): 1760 nM
- TGI (UO-31 renal): 3210 nM
- GI50 (HL-60(TB) leukemia): 2510 nM
- TGI (HL-60(TB) leukemia): 5710 nM
- GI50 (MDA-MB-435 melanoma): 2000 nM
- TGI (MDA-MB-435 melanoma): 3440 nM
- GI50 (U251 glioblastoma): 1650 nM
- TGI (U251 glioblastoma): 3030 nM
- GI50 (DU-145 prostate): 1880 nM
- TGI (DU-145 prostate): 3490 nM
- GI50 (HOP-62 NSCLC): 1880 nM
- TGI (HOP-62 NSCLC): 3340 nM
- GI50 (NCI/ADR-RES ovarian): 1820 nM
- TGI (NCI/ADR-RES ovarian): 3720 nM
- GI50 (UACC-62 melanoma): 1870 nM
- TGI (UACC-62 melanoma): 3290 nM
- GI50 (HCC-2998 colon): 1600 nM
- TGI (HCC-2998 colon): 2980 nM
- GI50 (SF-539 CNS): 1300 nM
- TGI (SF-539 CNS): 2580 nM
- GI50 ([…]-0 renal): 1520 nM
- TGI (786-0 renal): 2870 nM
- GI50 (NCI-H23 lung): 3330 nM
- TGI (NCI-H23 lung): 8850 nM
- GI50 (SK-MEL-2 melanoma): 1250 nM
- TGI (SK-MEL-2 melanoma): 2500 nM
- GI50 (OVCAR-3 ovarian): 1690 nM
- TGI (OVCAR-3 ovarian): 3100 nM
- GI50 (MDA-MB-231 breast): 1770 nM
- TGI (MDA-MB-231 breast): 3230 nM
- GI50 (KM12 colon): 1740 nM
- TGI (KM12 colon): 3140 nM
- GI50 (SF-295 CNS): 1840 nM
- TGI (SF-295 CNS): 3250 nM
- GI50 (A498 renal): 1600 nM
- TGI (A498 renal): 3020 nM
- GI50 (HT29 colon): 832 nM
- TGI (HT29 colon): 2090 nM
- GI50 (HCT-15 colon): 1610 nM
- TGI (HCT-15 colon): 2990 nM
